The text below walks through data of patent EP4775208A1, “USE OF PRMT5 INHIBITOR IN TREATMENT OF TUMORS OR CANCERS” (Apeiron Therapeutics (Hong Kong) Ltd., priority 2023, dated 2025).

In general, IC50 refers to the concentration that inhibits the measured activity by half. Low readings indicate inhibition by little substance, high ones a need for much substance.

Some results are limits rather than exact numbers.

Common to all, as to type: cell-based
One experiment has as its system SK-MEL-5. As to the kind of experiment: Mini cell panel: inhibition of proliferation of SK-MEL-5 cells. The conditions noted are these: Homo sapiens, MTAP (-/-). The source says:
(§1) Test 9: Mini Cell Panel: Assay for Inhibitory Activity of Compounds against Proliferation of 20 Tumor Cell Lines
(§2) Materials and Cells: Fifteen MTAP(-/-) cell lines and five MTAP wild-type cell lines were purchased from ATCC (USA). Cell culture media, fetal bovine serum (FBS), and penicillin-streptomycin were purchased from Thermo Fisher Scientific (USA). 384-well plates were purchased from PerkinElmer (USA). The CellTiter-Glo assay kit was purchased from Promega (USA). Paclitaxel was used as the control compound.

The subject of the next experiment is MDA-MB-231. As to the kind of experiment: Mini cell panel: inhibition of proliferation of MDA-MB-231 cells.
From the text: as §1, §2

Experiment [1] relates to LN18 MTAP-overexpressing cells. Kind of experiment: Inhibition of proliferation of LN18 MTAP-overexpressing cells (CellTiter-Glo). The following applies: cell proliferation, 7 days. The source says: Test 6: Assay for Inhibitory Activity of Compounds against LN18 MTAP-Overexpressing Cell Proliferatio
Materials and Cells: The LN18 MTAP-overexpressing cell line was purchased from Cobioer Biosciences (China). Cell culture media, fetal bovine serum (FBS), and penicillin-streptomycin were purchased from Thermo Fisher Scientific (USA). 384-well plates were purchased from PerkinElmer (USA). The CellTiter-Glo assay kit was purchased from Promega (USA).
Cell Culture: LN18 MTAP-overexpressing cells were cultured in a medium supplemented with 10% fetal bovine serum (FBS) and 1% penicillin-streptomycin at 37°C with 5% CO2. Only cells in the logarithmic growth phase were used for experiments.
Cell Proliferation Inhibition Assay: The antiproliferative activity of the compounds against LN18 MTAP-overexpressing cells was assessed using the CellTiter-Glo assay kit. Cell suspensions were adjusted to the appropriate density and seeded into 384-well plates at a volume of 40 µL per well, then incubated overnight at 37°C with 5% CO2. Compounds (40 nL) were added to each well to achieve final concentrations ranging from 0 to 10,000 nM (starting concentration 10,000 nM, 3-fold serial dilutions, 9 dose points), with a final DMSO concentration of […]. The cell plates were incubated at 37°C with 5% CO2 for 7 days. Subsequently, 40 µL of CellTiter-Glo reagent was added to measure cell viability.
In general terms: In ATP-based viability assays light output follows the ATP content of the culture.

Experiment [2] deals with HCT-116 MTAP wild-type cells. Kind of experiment: Inhibition of proliferation of HCT-116 MTAP wild-type cells (Cell-Titer Glo). The following applies: 8 days. The gist of the method:
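MTAP wild-type HCT-116 cells were seeded, cultured overnight and then exposed to compound from 10,000 nM down in a 10-point, 3-fold series (0.1% DMSO). Plates were incubated 8 days at 37°C, 5% CO2. Proliferation was read by Cell-Titer Glo viability luminescence.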

Where [3] appears, read: Homo sapiens, MDA-MB-231, MTAP (-/-).

As to `CN(C(=O)c1cc2c(cn1)nc(N)c1cncn12)[C@@H]1COc2cc(C(F)(F)F)ccc21` [Example 4, (S)-4-amino-N-methy 1-N-(6-(trifluoromethy 1)-2,3-dihydrobenzofuran-3-yl)imidazo[1,5-a]pyrido[3,4-e]pyrazine-8-carboxamide], the half-inhibitory concentration (IC50) with SK-MEL-5 is over 1 µM; in the experiment on MDA-MB-231 (setting [3]) it was 0.955 µM; in experiment [1] (Homo sapiens, LN-18, 168 h), 868 nM; in experiment [2] (Homo sapiens, HCT-116, 192 h) it was 1710 nM.

Turning to `[2H]C([2H])([2H])N(C(=O)c1ccc2nc(N)c3cncn3c2c1)[C@@H]1COc2cc(C(F)(F)F)ccc21` [Example 16, (S)-4-amino-N-(methyl-d3)-N-(6-(trifluoromethyl)-2,3-dihydrobenzofuran-3-yl)imidaz o[1,5-a]quinoxaline-8-carboxamide], the IC50 in experiment [1] (Homo sapiens, LN-18, 168 h) was 1200 nM; in experiment [2] (Homo sapiens, HCT-116, 192 h), 1080 nM.

As for `[2H]C([2H])([2H])N(C(=O)c1cc2c(cc1F)nc(N)c1cncn12)[C@@H]1COc2cc(C(F)(F)F)ccc21` [Example 41, (S)-4-amino-7-fluoro-N-(methyl-d3)-N-(6-(trifluoromethyl)-2,3-di hydrobenzofuran-3-yl)imidazo[1,5-a]quinox aline-8-carboxamide], the IC50 in experiment [1] (Homo sapiens, LN-18, 168 h) is 1970 nM; in experiment [2] (Homo sapiens, HCT-116, 192 h) it was 1140 nM.

`CN(C(=O)c1ccc2nc(N)c3cncn3c2c1)[C@@H]1COc2cc(C(F)(F)F)ccc21` [Example 107, (S)-4-amino-N-methy 1-N-(6-(trifluoromethy 1)-2,3-dihydrobenzofuran-3-yl)imidazo[1,5-a]quinoxaline-8-carboxamide]: the concentration for half-maximal inhibition (IC50) is over 1 µM with SK-MEL-5; 2.06 µM in the experiment with MDA-MB-231 (setting [3]); 1370 nM in experiment [1] (Homo sapiens, LN-18, 168 h); 1730 nM in experiment [2] (Homo sapiens, HCT-116, 192 h).

“(S)-4-amino-7-fluoro-N-methyl-N-(6-(triflu oromethyl)-2,3-dihydr obenzofuran-3-yl)imi dazo[1,5-a]quinoxalin e-8-carboxamide [Example 29]”: the 50% inhibitory concentration (IC50) in the experiment with MDA-MB-231 (MTAP (-/-)) amounted to 0.39 µM; in experiment [1], 812 nM; in experiment [2] it was 935 nM.
